Measured values reported in US20260097049A1, “C[…] AND METHODS OF USE FOR TREATMENT AND PREVENTION OF CANCER” (BlackStone Therapeutics, LLC, priority 2022, published 2026).
“And” between values parts separate entries of the source, which are not always exact repeats. Identical values can stand only once. Like-named read-outs stand apart in the source and are kept apart here.

Assays:
[1] = tested on: AsPC-1; assay: CellTiterGlo cell viability, AsPC-1 cells; type: cell-based; conditions: Homo sapiens, ASPC1, 72 h
Method: (§1) The IC50 values for (R)-H4CBD, (S)-H4CBD, H4CBDV racemic mixture, and bortezomib were determined. Compound treatment of cells started one day after seeding with a final DMSO concentration of 0.1% and was performed by nanodrop-dispensing using a Tecan Dispenser. 0.1% DMSO (solvent) and Staurosporine (1,0E-05M) served as high control (100% viability) and low control (0% viability), respectively. For the assays, cells were seeded in white cell culture-treated flat and clear bottom multiwell plates and incubated at 37° C. overnight before compounds were added. After incubation for 72 h at 37° C. at 5% or 10% CO2 dependent on the medium, cell plates were equilibrated to room temperature for one hour, CellTiterGlo reagent (Promega) was added and luminescence was measured approximately an hour later using a luminometer.
(§2) Raw data were converted into percent cell viability relative to the high and low control, which were set to 100% and 0%, respectively. IC50 calculation was performed using GraphPad Prism software with a variable slope sigmoidal response fitting model using 0% viability as bottom constraint and 100% viability as top constraint. IC50 results in PANC-1, MIA-PaCa2, and AsPC-1 cells for (R)-H4CBD, (S)-H4CBD, H4CBDV racemic mixture, and bortezomib are shown in FIGS. 10-12 and Table 2

[2] = tested on: MiaPaCA-2; assay: CellTiterGlo cell viability, MiaPaCA-2 cells; type: cell-based; conditions: Homo sapiens, MIA PaCa-2, 72 h
Method: as §1, §2

[3] = tested on: PANC-1; assay: CellTiterGlo cell viability, PANC-1 cells; type: cell-based; conditions: Homo sapiens, 72 h
Method: as §1, §2

[4] = Pharmacokinetics in CD1 male mice (plasma, HPLC-MS); type: in vivo; conditions: for MRT inf: read-out: MRTInf—obs; for Vd: read-out: Vss—obs
Method: Formulation and dosing information for pharmacokinetic data is provided in Table 5 (CD=beta-cyclodextrin). The solutions were sonicated, vortexed, and slightly heated resulting in a clear purple liquid.
Pharmacokinetic data was produced by administering CD1 male mice with CCL-104 (H4CBD) or CCL-106 (H4CBDV). Each compound was formulated and administered as shown in Example 3. Plasma was sampled from the IV administered mice at 5 min, 15 min, 30 min, 1 hr, 2 hr, 4 hr post dose. Plasma was sampled from the PO administered mice at 15 min, 30 min, 1 hr, 2 hr, 4 hr, 6 hr post dose. The desired serial concentrations of working solutions were achieved by diluting stock solution of analyte with 50% acetonitrile in water solution. 10 μL of working solutions (0.5, 1, 2, 5, 10, 50, 100, 500, 1000 ng/mL) were added to 10 μL of the blank male CD1 mice plasma to achieve calibration standards of 0.5-1000 ng/mL (0.5, 1, 2, 5, 10, 50, 100, 500, 1000 ng/mL) in a total volume of 20 μL. Six quality control samples at 1 ng/mL, 2 ng/mL, 5 ng/mL, 10 ng/mL, 50 ng/mL and 800 ng/mL for plasma were prepared independently of those used for the calibration curves. These QC samples were prepared on the day of analysis in the same way as calibration standards. 20 μL standards, 20 μL QC samples and 20 μL unknown samples (10 μL plasma with 10 μL blank solution) were added to 200 μL of methanol containing IS mixture for precipitating protein respectively. Then the samples were vortexed for 30 seconds, then centrifuged at 4° C., 4,000 rpm for 15 min. The supernatant was diluted with water at a ratio of 1:2. 15 μL of the diluted supernatant was injected into the LC/MS/MS system for quantitative analysis.

[5] = tested on: MiaPaca cells xenograft; assay: Miapaca cell xenograft study; type: in vivo, SCID mice
Method: Animal housing and environment: Female SCID mice will be housed in individually ventilated cages in a controlled environment (temperature 22±2° C., humidity 30-70%, and 12 h light/12 h dark cycle). Acclimatization of animals: Mice will be acclimated for 2-4 days. For the study, the required number of SCID mice will be allocated and housed separately in the experimental area. Food and water for animals: The mice will have access to commercially available sterile feed pellets and sterile potable water ad libitum. Identification of animals: 4 mice will be housed per individually ventilated cage. Each animal in the cage will be identified by ear punch. These cages will be numbered thus making the animal identification easy. Ethical approvals: All animal experiments will be carried out in accordance with the guidelines of the guide for animal welfare and with the approval of the IACUC WSU. Population per group: 9 mice per group (6 for efficacy and 3 for residual tumor analysis).
Miapaca cells were xenograft into the mice. 7 days after transplantation, the mice were untreated (administered a vehicle control), administered CCL-104 intravenously (15.4 mg/kg) or orally (31 mg/kg), or administered CCL-106, intravenously (20 mg/kg) or orally (31 mg/kg). At necropsy, tumors were excised for IHC, immunoblotting and RNA isolation for suppression proliferation related signaling molecules.

[6] = IV 10 mg/kg, individual mouse, 10 mg/kg
[7] = PO 10 mg/kg, individual mouse, 10 mg/kg
[8] = male, CD1, mouse, plasma, iv, 10 mg/kg, IV 10 mg/kg, Mean of 4 mice
[9] = male, CD1, mouse, plasma, iv, 10 mg/kg, IV 10 mg/kg, individual mouse
[10] = male, CD1, mouse, plasma, po, 10 mg/kg, PO 10 mg/kg, Mean of 4 mice
[11] = male, CD1, mouse, plasma, po, 10 mg/kg, PO 10 mg/kg, individual mouse

CCCc1cc(O)c(C2CC(C)CCC2C(C)C)c(O)c1 (racemic) [CCL-106, hexahydrocannabidivarin]
IC50 [1]: 1050 nM
IC50 [2]: 530 nM
IC50 [3]: 789 nM
AUClast/D (h*mg/mL) ([4]; IV 10 mg/kg, Mean of 4 mice): 184 h*ng/mL per mg/kg
AUC—% Extrap—obs ([4]; IV 10 mg/kg, Mean of 4 mice): 18.4%
Cl_obs ([4]; IV 10 mg/kg, Mean of 4 mice): 74.7 mL/min/kg
AUCInf [4, 6]: 2519 ng·h/mL and 2031 ng·h/mL and 2513 ng·h/mL
AUClast [4, 6]: 2047 ng·h/mL and 1630 ng·h/mL and 1952 ng·h/mL
AUC—% Extrap—obs [4, 6]: 12.7% and 18.7% and 19.8% and 22.3%
C0 [4, 6]: 4701 ng/mL and 5792 ng/mL and 5062 ng/mL
Cl_obs [4, 6]: 84.1 mL/min/kg and 66.2 mL/min/kg and 82.1 mL/min/kg and 66.3 mL/min/kg
MRTInf—obs [4, 6]: 2.11 h and 2.16 h and 2.49 h
T1/2 [4, 6]: 2.14 h and 2.50 h and 2.99 h
Vss—obs [4, 6]: 8.38 L/kg and 10.7 L/kg and 9.89 L/kg
AUClast/D (h*mg/mL) ([4]; PO 10 mg/kg, Mean of 4 mice): 31.6 h*ng/mL per mg/kg
AUC—% Extrap—obs ([4]; PO 10 mg/kg, Mean of 4 mice): 25.7%
AUCInf [4, 7]: 404 ng·h/mL and 453 ng·h/mL and 479 ng·h/mL
AUClast [4, 7]: 308 ng·h/mL and 414 ng·h/mL and 226 ng·h/mL
AUC—% Extrap—obs [4, 7]: 18.1% and 23.7% and 8.47% and 52.7%
Cmax [4, 7]: 233 ng/mL and 177 ng/mL and 352 ng/mL and 127 ng/mL
F (%) [4, 7]: 16.7% and 20.0% and 12.3%
MRTInf—obs [4, 7]: 3.27 h and 4.01 h and 2.21 h and 10.3 h
T1/2 [4, 7]: 3.20 h and 3.31 h and 2.04 h and 8.02 h
AUC(0-inf) [4, 8]: 2260 ng·h/mL
AUC(0-t) [4, 8]: 1840 ng·h/mL
half-life [4, 8]: 2.32 h
C0 ([4]; male, CD1, mouse, plasma, iv, 10 mg/kg, IV 10 mg/kg, Mean of 4 mice, read-out: C0): 4820 ng/mL
MRT inf [4, 8]: 2.1 h
Vd [4, 8]: 9.3 L/kg
AUC(0-inf) [4, 9]: 1980 ng·h/mL
AUC(0-t) [4, 9]: 1730 ng·h/mL
half-life [4, 9]: 1.63 h
C0 ([4]; male, CD1, mouse, plasma, iv, 10 mg/kg, IV 10 mg/kg, individual mouse, read-out: C0): 3720 ng/mL
MRT inf [4, 9]: 1.62 h
Vd [4, 9]: 8.18 L/kg
AUC(0-inf) [4, 10]: 429 ng·h/mL
AUC(0-t) [4, 10]: 316 ng·h/mL
Tmax [4, 10]: 0.25 h
bioavailability [4, 10]: 16.5%
half-life [4, 10]: 4.14 h
Cmax ([4]; male, CD1, mouse, plasma, po, 10 mg/kg, PO 10 mg/kg, Mean of 4 mice, read-out: Cmax): 222 ng/mL
MRT inf [4, 10]: 4.9 h
AUC(0-inf) [4, 11]: 383 ng·h/mL
AUC(0-t) [4, 11]: 314 ng·h/mL
Tmax [4, 11]: 0.25 h
bioavailability [4, 11]: 16.9%
reduction of final tumor weight (dot graph) ([5]; IV 20 mg/kg): 27.0%
reduction of mean of the final tumor weight (bar graph) ([5]; IV 20 mg/kg): 24.2%
reduction of final tumor weight (dot graph) ([5]; PO 31 mg/kg): 50.8%
reduction of mean of the final tumor weight (bar graph) ([5]; PO 31 mg/kg): 50.79%
tumor size compared to the untreated control ([5]; treated intravenously or orally, FIGS. 54-55): smaller tumors compared to the untreated control
